These results are taken from patent US20240299378A1, “EMULSION FOR USE IN THE TREATMENT OF ROSACEA” (EXINOV, priority 2021, published 2024).

The subject of this data set is cell proliferation in the local lymph nodes. The experiment in a line: mouse Local Lymph Node Assay (LLNA), 3HTdR incorporation. Conditions: topical on ears days 1-3; Em-A 100% (w/v) in AOO; HCA 25% (w/v) in AOO.

From the text: Preliminary tests: Based on the results of the Preliminary Compatibility Test, the tested emulsions characteristics (e.g., when the emulsion is a dense cream), its use and following the Organisation for Economic Co-operation and Development (OECD) Guidelines, the best vehicle for the tested emulsions was considered as AOO (acetone:olive oil 4:1 (v/v) mixture). The tested emulsions at 100% (w/v) were suitable for the test using AOO as vehicle. […] Based on the observations recorded in this test, the 100% (w/v) in AOO dose was selected as top dose for the main test. […] Tested emulsions were applied on the dorsal surface of ears of experimental animals (25 μL/ear using positive displacement pipette) for three consecutive days (days 1, 2 and 3). There was no treatment on days 4, 5 and 6. The cell proliferation in the local lymph nodes was assessed by measuring the incorporation of tritiated methyl thymidine (3HTdR) and the values obtained were used to calculate stimulation indices (SI) in comparison with the control group.

On to `CCCCCCC(C=O)=Cc1ccccc1` [HCA, α-hexylcinnamaldehyde], for which the “stimulation index (SI)” value turned out to be 12.7.
